Laboratory results reported in patent US20260364214A1, “MULTIVALENT FIBROBLAST ACTIVATION PROTEIN LIGANDS FOR TARGETED DELIVERY APPLICATIONS” (Philochem AG, priority 2022, published 2026).

How the values were obtained:
SK-RC-52.hFAP cells = assay: Cell efflux assay with 177Lu-labeled ligands; assay type: cell-based
Method: SK-RC-52.hFAP cells, were cultured using RPMI medium supplemented with 10% Fetal Bovine Serum (FBS) and 1% Antibiotic-Antimytotic. Cells were seeded in 24-well plates (200'000 cells/well, 0.5 mL/well) and incubated overnight at 37 °C, 5% CO2. Then, media was removed, cells were washed with PBS (2×0.5 mL) and incubated with a solution of ^177Lu-ESV6, ^177Lu-Bi-ESV6, ^177Lu-Tri-ESV6 or ^177Lu-FAP-2286 (10 KBq, […], 0.5 mL). After 1 h, media was removed, and cells were washed with PBS (2×0.5 mL) and incubated with fresh RPMI medium without supplements. Fractions of the culture media were measured with a gamma counter (Packard Cobra) at different time-points. Percentage of compound bound was calculated as fraction of the total activity and corrected for the ^177Lu decay, as shown in FIG. 3.

SK-RC-52.hFAP tumors [1] = assay: Dose escalation / dose optimization for radiotherapeutic applications; assay type: in vivo, mouse (female athymic Balb/c AnNRj-Foxn1); settings: 24 h
Method: Prior to the dose optimization study for radiotherapeutic applications, precursors (0.24 to 180 nmol) were dissolved in milliQ water and diluted with sodium acetate (1 M in water, pH=4.5). ^177Lu solution (4 MBq) were added and the mixture was heated at 90 °C for 10 minutes, followed by dilution with PBS to achieve final volume of 400 μL (4 doses of 100 μL each).
Female athymic Balb/c AnNRj-Foxn1 mice bearing subcutis SK-RC-52.hFAP tumors were injected intravenously with eight different doses of ^177Lu-Tri-ESV6-DOTAGA ranging from 3 nmol/kg to 2250 nmol/kg. The mice were sacrificed after 24 h and tumor and healthy organs were harvested and measured with a gamma counter. Since the best tumor to organ ratios are obtained with high doses ranging between 90 and 250 nmol/kg, we anticipate that the ideal dose in human patients for radiotherapeutic applications will be between 1 and 3 milligram per patient. e) Therapeutic efficacy evaluation in tumor bearing mice in dose escalation and in combination with L19-IL2

SK-RC-52.hFAP tumors [2] = assay: Therapeutic efficacy in dose escalation and in combination with L19-IL2; assay type: in vivo, mouse (athymic Balb/c AnNRj-Foxn1); settings: 5, 15 or 30 MBq/mouse on day 7
Method: Prior to the therapy studies, precursors (25 nmol) were dissolved in 25 μL of milliQ water, then sodium acetate buffer (75 μL, 1 M in water) and 25, 75 or 150 MBq of ^177Lu solution were added. The mixture was heated at 90 °C for 1 minutes followed by dilution with 400 μL of PBS to afford a final volume of 500 μL (5 doses of 100 μL each). Quality control of radiosynthesis was performed using radio-HPLC.
The anti-cancer efficacy of L19-IL2 as single agent (3×0.05 mg/mouse), ^177Lu-Tri-ESV6 as single agent at different doses (5 MBq/mouse, 15 MBq/mouse, 30 MBq/mouse), ^177Lu-Tri-ESV6+L19-IL2 combination (5 MBq/mouse of ^177Lu-Tri-ESV6 followed by three injections of L19-IL2 at 0.05 mg/mouse) or saline was assessed in athymic Balb/c AnNRj-Foxn1 mice bearing SK-RC-52.hFAP tumor in the right flank. Therapy experiments started when the average volume of established tumors had reached 100-150 mm^3. Body weight of the animals and tumor volume were daily measured and recorded. Tumor dimensions were measured with an electronic caliper and tumor volume was calculated with the formula (long side, mm)×(short side, mm)×(short side, mm)×0.5. Animals were euthanized when one or more termination criterium indicated by the experimental license was reached. Prism 7 software (GraphPad Software) was used for data analysis. […]

SK-RC-52.hFAP tumors [3] = assay: 177Lu biodistribution at different radioisotope molar activities; assay type: in vivo, mouse; settings: 0.2 vs 4.8 MBq/nmol; 24 h post injection
Method: Prior to the biodistribution study at different specific activities (FIG. 19), precursors (20 nmol) were dissolved in milliQ water and diluted with sodium acetate (1 M in water, pH=4.5). ^177Lu solution (4 or 96 MBq) were added and the mixture was heated at 90 °C for 10 minutes, followed by dilution with PBS to achieve final volume of 400 μL (4 doses of 100 μL each, corresponding to 0.2 MBq/nmol and 4.8MBq/nmol, respectively).
Results of the ^177Lu biodistribution study at different specific activities: low (0.2 MBq/nmol) and high (4.8 MBq/nmol) with ^177Lu Tri-ESV6-DOTAGA are shown in FIG. 19.

N#CC1CC(F)(F)CN1C(=O)CNC(=O)c1ccnc2c(NC(=O)CCC(=O)NCCNC(=O)CCOCC(COCCC(=O)NCCNC(=O)CCC(=O)Nc3cccc4c(C(=O)NCC(=O)N5CC(F)(F)CC5C#N)ccnc34)(COCCC(=O)NCCNC(=O)CCC(=O)Nc3cccc4c(C(=O)NCC(=O)N5CC(F)(F)CC5C#N)ccnc34)NC(=O)CCC(C(=O)O)N3CCN(CC(=O)[O-])CCN(CC(=O)[O-])CCN(CC(=O)[O-])CC3)cccc12.[177Lu+3] (centres unmarked) [^177Lu-Tri-ESV6-DOTAGA]
residence time / efflux, in words (SK-RC-52.hFAP cells): longer residence time in FAP-positive tumor cells, followed by ^177Lu-Bi-ESV6, ^177Lu-ESV6 and ^177Lu-FAP2286 | % ID/g in tumor, in words (SK-RC-52.hFAP tumors [1]; highest doses (>90 nmol/kg)): drops | uptake in healthy organs, in words (SK-RC-52.hFAP tumors [1]; lowest doses (<10 nmol/kg)): partially uptaken in healthy organs | therapeutic activity, in words (SK-RC-52.hFAP tumors [2]): dose-dependent therapeutic activity | effect of molar activity on biodistribution, in words (SK-RC-52.hFAP tumors [3]): does not significantly interfere with the advantageous biodistribution
